Where a name gives a salt, the structure may show the parent alone.
molecular target: T1, CCR1 (Homo sapiens, UniProt P32246); assay: Antagonism of MIP-1α binding to human THP-1 cells (125-I MIP-1α radioligand binding); conditions: 125-I labeled human MIP-1α, THP-1 cells expressing endogenous CCR1; read-out: CCR1 Binding Ki (n = 1 unless otherwise noted)
T1 construct: the THP-1 cell line, which expresses the endogenous CCR1 receptor; endogenous in cells; host or cells: THP-1 cells (human monocytic cell line)
T1 sequence (P32246 1-355): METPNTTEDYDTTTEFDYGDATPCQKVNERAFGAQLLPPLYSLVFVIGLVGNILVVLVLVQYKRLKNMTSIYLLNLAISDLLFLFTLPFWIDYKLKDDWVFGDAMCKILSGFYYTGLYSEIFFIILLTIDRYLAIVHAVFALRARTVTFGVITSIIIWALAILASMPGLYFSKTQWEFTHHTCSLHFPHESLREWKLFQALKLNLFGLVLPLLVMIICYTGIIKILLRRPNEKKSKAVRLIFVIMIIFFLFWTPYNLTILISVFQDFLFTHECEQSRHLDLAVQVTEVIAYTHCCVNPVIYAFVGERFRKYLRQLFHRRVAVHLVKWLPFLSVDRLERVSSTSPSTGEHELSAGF
Method: Antagonism of MIP-1α Binding to Human THP-1 Cells
Compounds of the present invention have activity in the antagonism of MIP-1α binding to human THP-1 cells described here.
Millipore filter plates (#MABVN1250) are treated with 100 μl of binding buffer (0.5% bovine serum albumin, 20 mM HEPES buffer and 5 mM magnesium chloride in RPMI 1640 media) for thirty minutes at room temperature. To measure binding, 50 μl of binding buffer, with or without a known concentration of compound, is combined with 50 μl of ^125-I labeled human MIP-1α (to give a final concentration of […] radioligand) and 50 μl of binding buffer containing 5×10^5 cells. Cells used for such binding assays can include the THP-1 cell line, which expresses the endogenous CCR1 receptor, or human peripheral blood mononuclear cells, isolated by Ficoll-Hypaque gradient centrifugation, or human monocytes (Weiner et al., J. Immunol. Methods, 1980, 36, 89). The mixture of compound, cells and radioligand is incubated at room temperature for thirty minutes. Plates are placed onto a vacuum manifold, vacuum applied, and the plates washed three times with binding buffer containing 0.5M NaCl. The plastic skirt is removed from the plate, the plate allowed to air dry, the wells punched out and counted. The percent inhibition of binding is calculated using the total counts obtained in the absence of any competing compound and the background binding determined by addition of 100 nM MIP-1α in place of the test compound.
Compounds of the present invention were tested in the assay described immediately above and the results, including results from the chiral separation of Example 1c, shown in Table 2 below were obtained.

Ki | SMILES
6.1 ± 0.71 nM | NC(=O)Nc1cc(Cl)ccc1OCC(O)C1CCN(Cc2ccc(Cl)c(Cl)c2)CC1 (single isomer, unassigned) [1c Enantiomer 2]
1500 nM | NC(=O)Nc1cc(Cl)ccc1OCC(O)C1CCN(Cc2ccc(Cl)c(Cl)c2)CC1 (single isomer, unassigned) [1c Enantiomer 1]

Further lines, the compound ahead of its results:

SMILES | Ki
OC(COc1ccc(Cl)cc1)C1CCN(Cc2ccc(Cl)cc2)CC1 (racemic) [Example 1i, 1-(1-(4-Chlorobenzyl)piperidin-4-yl)-2-(4-chlorophenoxy)ethanol, TFA salt] | 111 nM
NC(=O)Nc1cc(Cl)ccc1OCC(O)C1CCN(Cc2ccc(Cl)cc2)CC1 (racemic) [Example 1a, 1-(5-Chloro-2-(2-(1-(4-chlorobenzyl)piperidin-4-yl)-2-hydroxyethoxy)phenyl)urea, TFA salt] | 4.49 ± 1.15 nM
OC(COc1ccc(Cl)cc1)C1CCN(Cc2ccccc2)CC1 (racemic) [Example 1l, 1-(1-Benzylpiperidin-4-yl)-2-(4-chlorophenoxy)ethanol, TFA salt] | 6440 nM
